This note sets out measurements from patent US20240150377A1, “MODULATORS OF CYSTIC FIBROSIS TRANSMEMBRANE CONDUCTANCE REGULATOR” (VERTEX PHARMACEUTICALS INCORPORATED, priority 2020, published 2024).

The structures appear in SMILES notation. Read-outs that look alike come from different tables or passages of the source.

The target of this assay is T1, CFTR (Homo sapiens, UniProt P13569, DEL508-508).
T1 construct: endogenous in cells; host or cells: primary human bronchial epithelial cells from CF subjects (F508del/MF-HBE), differentiated at air-liquid interface
The experiment in a line: HBE assay: Ussing chamber assay of CFTR-mediated short-circuit currents. It counts as cell-based. The note with it: for EC50: read-out: HBE EC50. An outline of the steps:
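CFTR-mediated Isc (μA/cm²) equals the peak response to apical 20 μM forskolin minus the residual after a 20 μM each BPO/GlyH-101/CFTR inhibitor 172 cocktail, recorded in Ussing chambers at Vhold 0 mV, 37 °C, pH 7.4, with 30 μM apical amiloride. Cells were F508del/MF HBE cultures preincubated 18-24 h with corrector (concentration range or 10 μM) plus 1 μM ivacaftor in 20% human serum.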

[1] abbreviates: Table 10, read-out: HBE activity at 10 (μM) (%).
Setting [2] is: Table 10, read-out: HBE Max activity (%).
The mark [3] stands for this setting: Table 13, read-out: HBE Max Activity (%).
[4] abbreviates: Table 12, read-out: HBE Max Activity (%).
Where [5] appears, read: Table 12, read-out: HBE Activity at 10 μM (%).
Where [6] appears, read: Table 11, read-out: HBE Max Activity (%).

T1 sequence (P13569 with tags, fused parts or gaps DEL508-508): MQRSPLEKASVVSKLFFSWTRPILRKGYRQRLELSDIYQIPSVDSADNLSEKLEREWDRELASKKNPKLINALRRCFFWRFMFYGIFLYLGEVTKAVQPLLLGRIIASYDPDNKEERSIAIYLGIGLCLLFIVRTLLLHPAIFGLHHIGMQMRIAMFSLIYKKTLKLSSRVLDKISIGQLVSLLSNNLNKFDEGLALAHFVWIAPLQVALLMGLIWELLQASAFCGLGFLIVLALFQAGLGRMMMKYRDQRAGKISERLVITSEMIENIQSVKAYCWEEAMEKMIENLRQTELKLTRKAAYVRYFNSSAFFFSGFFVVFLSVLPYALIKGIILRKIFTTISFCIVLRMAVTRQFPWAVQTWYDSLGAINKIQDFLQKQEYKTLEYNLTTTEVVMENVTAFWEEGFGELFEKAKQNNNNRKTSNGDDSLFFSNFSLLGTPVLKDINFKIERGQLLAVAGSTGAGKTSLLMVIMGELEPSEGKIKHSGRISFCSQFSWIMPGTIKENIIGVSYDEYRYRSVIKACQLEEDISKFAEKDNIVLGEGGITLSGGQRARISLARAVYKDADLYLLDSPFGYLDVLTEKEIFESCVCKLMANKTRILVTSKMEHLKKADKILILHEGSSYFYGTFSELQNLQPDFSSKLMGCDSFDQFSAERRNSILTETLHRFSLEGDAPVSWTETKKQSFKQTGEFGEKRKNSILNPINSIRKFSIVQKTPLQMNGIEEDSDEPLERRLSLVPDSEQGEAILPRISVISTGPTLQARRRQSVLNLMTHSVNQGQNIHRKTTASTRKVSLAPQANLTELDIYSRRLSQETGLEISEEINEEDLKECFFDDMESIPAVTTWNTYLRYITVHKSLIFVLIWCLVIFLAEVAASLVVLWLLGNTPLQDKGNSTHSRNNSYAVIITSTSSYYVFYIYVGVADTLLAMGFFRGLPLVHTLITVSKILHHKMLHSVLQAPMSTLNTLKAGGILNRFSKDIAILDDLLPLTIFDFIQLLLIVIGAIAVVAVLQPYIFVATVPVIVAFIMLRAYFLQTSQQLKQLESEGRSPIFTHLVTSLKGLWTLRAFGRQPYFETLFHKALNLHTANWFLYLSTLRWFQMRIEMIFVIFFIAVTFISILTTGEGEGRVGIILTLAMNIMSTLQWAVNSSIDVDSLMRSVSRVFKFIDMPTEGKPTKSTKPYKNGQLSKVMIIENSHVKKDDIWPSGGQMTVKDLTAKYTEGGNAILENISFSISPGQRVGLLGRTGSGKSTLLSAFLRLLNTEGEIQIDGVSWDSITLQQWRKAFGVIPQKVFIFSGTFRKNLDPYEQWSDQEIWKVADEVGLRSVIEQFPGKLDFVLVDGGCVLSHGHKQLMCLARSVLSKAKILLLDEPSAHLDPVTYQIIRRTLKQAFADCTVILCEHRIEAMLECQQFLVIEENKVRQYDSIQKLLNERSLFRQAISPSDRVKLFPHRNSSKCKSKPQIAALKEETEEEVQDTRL

For the molecule `Cc1cccc(C)c1-c1cc2nc(n1)NS(=O)(=O)c1cccc(c1)C(=O)N(Cc1cnn(C(C)C)c1)[C@H](CC(C)(C)C)CO2` [Compound 823], under setting [1], the activation at 10 µM was more than 60%. The Emax under setting [2] was more than 60%.

Take `Cc1cccc(C)c1-c1cc2nc(n1)NS(=O)(=O)c1cccc(c1)C(=O)N(Cc1cnn(C)c1C)[C@H](CC(C)(C)C)CO2` [Compound 824]: under setting [1], the activation at 10 µM is more than 60%.

For `Cc1cccc(C)c1-c1cc2nc(n1)NS(=O)(=O)c1cccc(c1)C(=O)N(Cc1ccn(C)n1)[C@H](CC(C)(C)C)CO2` [Compound 825], the activation at 10 µM under setting [1] is more than 60%.

Turning to `Cc1cccc(C)c1-c1cc2nc(n1)NS(=O)(=O)c1cccc(c1)C(=O)N(Cc1cnn(C)c1)[C@H](CC(C)(C)C)CO2` [Compound 826], under setting [1], the activation at 10 µM was more than 60%.

Consider `Cc1cccc(C)c1-c1cc2nc(n1)NS(=O)(=O)c1cccc(c1)C(=O)N(Cc1ccnn1C)[C@H](CC(C)(C)C)CO2` [Compound 827], for which the activation at 10 µM under setting [1] is more than 60%.

With `Cc1cccc(C)c1-c1cc2nc(n1)NS(=O)(=O)c1cccc(c1)C(=O)N(Cc1cc(C)n(C)n1)[C@H](CC(C)(C)C)CO2` [Compound 828], under setting [1], the activation at 10 µM is more than 60%.

As to `CC(C)c1cccc(C(C)C)c1-c1cc2nc(n1)NS(=O)(=O)c1cccc(c1)C(=O)N(Cc1ccc(N3CCCCC3)cn1)[C@H](CC(C)(C)C)CO2` [Compound 829], the activation at 10 µM under setting [1] was more than 60%.

Regarding `CC(C)c1cccc(C(C)C)c1-c1cc2nc(n1)NS(=O)(=O)c1cccc(c1)C(=O)N(Cc1ncc(N3CCOCC3)cn1)[C@H](CC(C)(C)C)CO2` [Compound 830], the Emax under setting [2] is more than 60%.

Consider `CC(C)c1cccc(C(C)C)c1-c1cc2nc(n1)NS(=O)(=O)c1cccc(c1)C(=O)N(Cc1ccc(N3CCOCC3)cn1)[C@H](CC(C)(C)C)CO2` [Compound 831], for which the Emax under setting [2] is more than 60%.

In the case of `Cc1cccc(C)c1-c1cc2nc(n1)NS(=O)(=O)c1cccc(c1)C(=O)N(CC1CCCCC1)[C@H](CC(C)(C)C)CO2` [Compound 832], the activation at 10 µM under setting [1] was more than 60%.

In the case of `Cc1cccc(C)c1-c1cc2nc(n1)NS(=O)(=O)c1cccc(c1)C(=O)N(CC1CCCCO1)[C@H](CC(C)(C)C)CO2` (stereo partly drawn) [Compound 833], the Emax under setting [2] is more than 60%.

By EC50 is commonly meant the midpoint of the concentration-response curve. Take `Cc1cccc(C)c1-c1cc2nc(n1)NS(=O)(=O)c1cccc(c1)C(=O)N(CC1CCCO1)[C@H](CC(C)(C)C)CO2` (stereo partly drawn) [Compound 835]: the EC50 (Table 10) was less than 1000 nM. In addition, the Emax under setting [2] was more than 60%.

Consider `Cc1cccc(C)c1-c1nc2nc(c1C)OC[C@@H](CC(C)(C)C)N(CC1CCCO1)C(=O)c1cccc(c1)S(=O)(=O)N2` (stereo partly drawn) [Compound 836], for which the Emax under setting [2] was more than 60%.

Regarding `Cc1cccc(C)c1-c1cc2nc(n1)NS(=O)(=O)c1cccc(c1)C(=O)N(Cc1ncc(N3CC4(CCOCC4)C3)cn1)[C@H](CC(C)(C)C)CO2` [Compound 866], the EC50 (Table 13) was less than 1000 nM. The Emax under setting [3] was more than 60%.

As for `Cc1cccc(C)c1-c1cc2nc(n1)NS(=O)(=O)c1cccc(c1)C(=O)N(Cc1ncc(N3CC4(COC4)C3)cn1)[C@H](CC(C)(C)C)CO2` [Compound 867], the half-maximal effective concentration (EC50) (Table 13) was less than 1000 nM. Further, the Emax under setting [3] was more than 60%.

With `COC1CC2(C1)CN(c1cnc(CN3C(=O)c4cccc(c4)S(=O)(=O)Nc4nc(cc(-c5c(C)cccc5C)n4)OC[C@H]3CC(C)(C)C)nc1)C2` [Compound 868], for the setting “Table 13”, the EC50 is less than 1000 nM. Moreover, the Emax under setting [3] was more than 60%.

In the case of `Cc1cccc(C)c1-c1cc2nc(n1)NS(=O)(=O)c1cccc(c1)C(=O)N(Cc1ncc(N3CC4(C3)CC(C)(C)C4)cn1)[C@H](CC(C)(C)C)CO2` [Compound 869], under “Table 13”, the EC50 is less than 1000 nM. For the same molecule, the Emax under setting [3] was more than 60%.

Consider `COC1(C)CCN(c2cnc(CN3C(=O)c4cccc(c4)S(=O)(=O)Nc4nc(cc(-c5c(C)cccc5C)n4)OC[C@H]3CC(C)(C)C)nc2)CC1` [Compound 870], for which the activation at 10 µM (Table 13, read-out: HBE Activity at 10 μM (%)) is more than 600%. Also, for the setting “Table 13”, the EC50 is less than 1000 nM. The Emax under setting [3] is more than 60%.

Regarding `Cc1cccc(C)c1-c1cc2nc(n1)NS(=O)(=O)c1cccc(c1)C(=O)N(Cc1cccc(C(C)C(C)C)n1)[C@H](CC(C)(C)C)CO2` (stereo partly drawn) [Compound 871], the EC50 (Table 12) was less than 1000 nM. Under setting [4], the Emax is more than 60%.

In the case of `Cc1cccc(C)c1-c1cc2nc(n1)NS(=O)(=O)c1cccc(c1)C(=O)N(Cc1cccc(N3CCOC(C)(C)C3)n1)[C@H](CC(C)(C)C)CO2` [Compound 872], the EC50 (Table 12) is less than 1000 nM. Further, the Emax under setting [4] was more than 60%.

For `Cc1cccc(C)c1-c1cc2nc(n1)NS(=O)(=O)c1cccc(c1)C(=O)N(Cc1ncc(N3CC4CCC3C4)cn1)[C@H](CC(C)(C)C)CO2` (stereo partly drawn) [Compound 874], the EC50 (Table 12) was less than 1000 nM. In addition, the Emax under setting [4] is more than 60%.

In the case of `Cc1cccc(C)c1-c1cc2nc(n1)NS(=O)(=O)c1cccc(c1)C(=O)N(Cc1ncc(N3CCC(C(C)(C)C)C3)cn1)[C@H](CC(C)(C)C)CO2` (stereo partly drawn) [Compound 875], the EC50 (Table 12) was less than 1000 nM. Also, under setting [4], the Emax was more than 60%.

With `COC1CN(c2cccc(CN3C(=O)c4cccc(c4)S(=O)(=O)Nc4nc(cc(-c5c(C)cccc5C)n4)OC[C@H]3CC(C)(C)C)n2)C(C)(C)C1` (stereo partly drawn) [Compound 876], the EC50 (Table 12) was less than 1000 nM. Further, the Emax under setting [4] is more than 60%.

In the case of `Cc1cccc(C)c1-c1cc2nc(n1)NS(=O)(=O)c1cccc(c1)C(=O)N(Cc1cccc(N3CC(C(C)(C)C)CC3(C)C)n1)[C@H](CC(C)(C)C)CO2` (stereo partly drawn) [Compound 877], the activation at 10 µM under setting [5] is more than 600%.

On to `Cc1cccc(C)c1-c1cc2nc(n1)NS(=O)(=O)c1cccc(c1)C(=O)N(Cc1cccc3ccnn13)[C@H](CC(C)(C)C)CO2` [Compound 878], for which the activation at 10 µM under setting [5] is more than 600%.

As to `Cc1cccc(C)c1-c1cc2nc(n1)NS(=O)(=O)c1cccc(c1)C(=O)N(Cc1cnc3ccccn13)[C@H](CC(C)(C)C)CO2` [Compound 879], the activation at 10 µM under setting [5] is more than 600%.

Take `Cc1cccc(C)c1-c1cc2nc(n1)NS(=O)(=O)c1cccc(c1)C(=O)N(Cc1ccc(OC(C)C)nc1)[C@H](CC(C)(C)C)CO2` [Compound 880]: the activation at 10 µM under setting [5] is more than 600%.

In the case of `Cc1cccc(C)c1-c1cc2nc(n1)NS(=O)(=O)c1cccc(c1)C(=O)N(Cc1cncc(N(C)C(C)C)n1)[C@H](CC(C)(C)C)CO2` [Compound 881], the concentration giving a half-maximal response (EC50) (Table 12) is less than 1000 nM. Also, under setting [4], the Emax is more than 60%.

For the molecule `Cc1cccc(C)c1-c1cc2nc(n1)NS(=O)(=O)c1cccc(c1)C(=O)N(Cc1ccc(C3CCCCC3)nc1)[C@H](CC(C)(C)C)CO2` [Compound 882], the activation at 10 µM under setting [5] is more than 600%.

As for `Cc1cccc(C)c1-c1cc2nc(n1)NS(=O)(=O)c1cccc(c1)C(=O)N(Cc1ccc(N3CCC(C)(C)C3)nc1)[C@H](CC(C)(C)C)CO2` [Compound 883], the EC50 (Table 12) is less than 1000 nM. The Emax under setting [4] was more than 60%.

Regarding `COc1cncc(CN2C(=O)c3cccc(c3)S(=O)(=O)Nc3nc(cc(-c4c(C)cccc4C)n3)OC[C@H]2CC(C)(C)C)n1` [Compound 884], the EC50 (Table 11) is less than 1000 nM. The Emax under setting [6] is more than 60%.

On to `Cc1cccc(C)c1-c1cc2nc(n1)NS(=O)(=O)c1cccc(c1)C(=O)N(Cc1cncc(N(C)C)n1)[C@H](CC(C)(C)C)CO2` [Compound 885], for which the EC50 (Table 11) is less than 1000 nM. Under setting [6], the Emax is more than 60%.

In the case of `Cc1cccc(C)c1-c1cc2nc(n1)NS(=O)(=O)c1cccc(c1)C(=O)N(Cc1cc(C(C)(C)C)ccn1)[C@H](CC(C)(C)C)CO2` [Compound 886], the EC50 (Table 11) is less than 1000 nM. Moreover, the Emax under setting [6] was more than 60%.

Take `COCCN(C)c1ccnc(CN2C(=O)c3cccc(c3)S(=O)(=O)Nc3nc(cc(-c4c(C)cccc4C)n3)OC[C@H]2CC(C)(C)C)c1` [Compound 887]: under “Table 11”, the EC50 was less than 1000 nM. For the same molecule, the Emax under setting [6] is more than 60%.

For the molecule `Cc1cccc(C)c1-c1cc2nc(n1)NS(=O)(=O)c1cccc(c1)C(=O)N(Cc1cc(N3CCCCC3)ccn1)[C@H](CC(C)(C)C)CO2` [Compound 888], the EC50 (Table 11) is less than 1000 nM. Under setting [6], the Emax is more than 60%.

For the molecule `Cc1cccc(C)c1-c1cc2nc(n1)NS(=O)(=O)c1cccc(c1)C(=O)N(Cc1cnc(C3CCOCC3)cn1)[C@H](CC(C)(C)C)CO2` [Compound 889], the EC50 (Table 11) lay within 1000 to 3000 nM. Also, the Emax under setting [6] is more than 60%.

For the molecule `Cc1cccc(C)c1-c1cc2nc(n1)NS(=O)(=O)c1cccc(c1)C(=O)N(Cc1cnc(C3CCCC3)cn1)[C@H](CC(C)(C)C)CO2` [Compound 890], where the note is “Table 11”, the EC50 lay in the range of 3000 to 30000 nM. Besides, the Emax under setting [6] is more than 60%.

As for `Cc1cccc(C)c1-c1cc2nc(n1)NS(=O)(=O)c1cccc(c1)C(=O)N(Cc1cnc(C3CCCCC3)cn1)[C@H](CC(C)(C)C)CO2` [Compound 891], the EC50 (Table 11) is 1000 to 3000 nM. Besides, the Emax under setting [6] was more than 60%.

Turning to `Cc1cccc(C)c1-c1cc2nc(n1)NS(=O)(=O)c1cccc(c1)C(=O)N(Cc1cncc(C(C)C)n1)[C@H](CC(C)(C)C)CO2` [Compound 892], the EC50 (Table 11) is less than 1000 nM. Further, the Emax under setting [6] was more than 60%.

Turning to `Cc1cccc(C)c1-c1cc2nc(n1)NS(=O)(=O)c1cccc(c1)C(=O)N(Cc1cnc(C(C)C)cn1)[C@H](CC(C)(C)C)CO2` [Compound 893], the EC50 (Table 11) was less than 1000 nM. Moreover, the Emax under setting [6] is more than 60%.

Regarding `Cc1cccc(C)c1-c1cc2nc(n1)NS(=O)(=O)c1cccc(c1)C(=O)N(Cc1cncc(OC(C)C)n1)[C@H](CC(C)(C)C)CO2` [Compound 894], the EC50 (Table 11) was less than 1000 nM. The Emax under setting [6] was more than 60%.

Turning to `COCCN(C)c1cncc(CN2C(=O)c3cccc(c3)S(=O)(=O)Nc3nc(cc(-c4c(C)cccc4C)n3)OC[C@H]2CC(C)(C)C)n1` [Compound 895], where the note is “Table 11”, the EC50 was less than 1000 nM. Also, the Emax under setting [6] was more than 60%.
